Test results reported in ChEMBL document CHEMBL4507272 (2021).

Experiments:
Histamine H3 receptor = Histamine H3 receptor (Homo sapiens, UniProt Q9Y5N1); test: GPCRScan assay: inhibition of H3; parameters: radioligand conc. used [nm] 0.5 – 1.0, parental cells HEK Flp-In
[1] = test system: Tyrosine-protein kinase ABL1 (Homo sapiens), P00519 [Q252H]; conditions: Compound concentration 1000.0 nM
[2] = target: Tyrosine-protein kinase ABL1 (Homo sapiens) (UniProt P00519); conditions: Compound concentration 1000.0 nM
[3] = target: Tyrosine-protein kinase ABL2 (Homo sapiens) (UniProt P42684); conditions: Compound concentration 1000.0 nM
[4] = test system: ALK tyrosine kinase receptor (Homo sapiens), Q9UM73 [L1196M]; conditions: Compound concentration 1000.0 nM
[5] = target: Mitogen-activated protein kinase kinase kinase 6 (Homo sapiens) (UniProt O95382); conditions: Compound concentration 1000.0 nM
[6] = target: Protein-tyrosine kinase 6 (Homo sapiens) (UniProt Q13882); conditions: Compound concentration 1000.0 nM
[7] = target: Calcium/calmodulin-dependent protein kinase type 1D (Homo sapiens) (UniProt Q8IU85); conditions: Compound concentration 1000.0 nM
[8] = target: Cyclin-dependent kinase 13 (Homo sapiens) (UniProt Q14004); conditions: Compound concentration 1000.0 nM
[9] = target: Cyclin-dependent kinase-like 1 (Homo sapiens) (UniProt Q00532); conditions: Compound concentration 1000.0 nM
[10] = target: Cyclin-dependent kinase-like 5 (Homo sapiens) (UniProt O76039); conditions: Compound concentration 1000.0 nM
[11] = target: Serine/threonine-protein kinase Chk1 (Homo sapiens) (UniProt O14757); conditions: Compound concentration 1000.0 nM
[12] = target: Dual specificity protein kinase CLK4 (Homo sapiens) (UniProt Q9HAZ1); conditions: Compound concentration 1000.0 nM
[13] = target: Serine/threonine-protein kinase DCLK1 (Homo sapiens) (UniProt O15075); conditions: Compound concentration 1000.0 nM
[14] = test system: Receptor-type tyrosine-protein kinase FLT3 (Homo sapiens), P36888 [K663Q]; conditions: Compound concentration 1000.0 nM
[15] = target: Tyrosine-protein kinase Fyn (Homo sapiens) (UniProt P06241); conditions: Compound concentration 1000.0 nM
[16] = target: Homeodomain-interacting protein kinase 3 (Homo sapiens) (UniProt Q9H422); conditions: Compound concentration 1000.0 nM
[17] = test system: Mast/stem cell growth factor receptor Kit (Homo sapiens), P10721 [A829P]; conditions: Compound concentration 1000.0 nM
[18] = test system: Mast/stem cell growth factor receptor Kit (Homo sapiens), P10721 [L576P]; conditions: Compound concentration 1000.0 nM
[19] = target: MAP/microtubule affinity-regulating kinase 3 (Homo sapiens) (UniProt P27448); conditions: Compound concentration 1000.0 nM
[20] = target: Mitogen-activated protein kinase kinase kinase 9 (Homo sapiens) (UniProt P80192); conditions: Compound concentration 1000.0 nM
[21] = target: Serine/threonine-protein kinase 4 (Homo sapiens) (UniProt Q13043); conditions: Compound concentration 1000.0 nM
[22] = target: Serine/threonine-protein kinase 26 (Homo sapiens) (UniProt Q9P289); conditions: Compound concentration 1000.0 nM
[23] = target: Serine/threonine-protein kinase 38 (Homo sapiens) (UniProt Q15208); conditions: Compound concentration 1000.0 nM
[24] = target: Serine/threonine-protein kinase Nek5 (Homo sapiens) (UniProt Q6P3R8); conditions: Compound concentration 1000.0 nM
[25] = target: Serine/threonine-protein kinase PAK 3 (Homo sapiens) (UniProt O75914); conditions: Compound concentration 1000.0 nM
[26] = target: Phosphorylase b kinase gamma catalytic chain, skeletal muscle/heart isoform (Homo sapiens) (UniProt Q16816); conditions: Compound concentration 1000.0 nM
[27] = target: Phosphorylase b kinase regulatory subunit alpha, liver isoform (Homo sapiens) (UniProt P46019); conditions: Compound concentration 1000.0 nM
[28] = target: Phosphatidylinositol 4-kinase beta (Homo sapiens) (UniProt Q9UBF8); conditions: Compound concentration 1000.0 nM
[29] = target: Serine/threonine-protein kinase pim-1 (Homo sapiens) (UniProt P11309); conditions: Compound concentration 1000.0 nM
[30] = target: Serine/threonine-protein kinase pim-3 (Homo sapiens) (UniProt Q86V86); conditions: Compound concentration 1000.0 nM
[31] = target: Protein kinase C iota type (Homo sapiens) (UniProt P41743); conditions: Compound concentration 1000.0 nM
[32] = test system: Proto-oncogene tyrosine-protein kinase receptor Ret (Homo sapiens), P07949 [V804M]; conditions: Compound concentration 1000.0 nM
[33] = target: Serine/threonine-protein kinase RIO3 (Homo sapiens) (UniProt O14730); conditions: Compound concentration 1000.0 nM
[34] = target: Receptor-interacting serine/threonine-protein kinase 4 (Homo sapiens) (UniProt P57078); conditions: Compound concentration 1000.0 nM
[35] = target: Dual serine/threonine and tyrosine protein kinase (Homo sapiens) (UniProt Q6XUX3); conditions: Compound concentration 1000.0 nM
[36] = target: Serine/threonine-protein kinase Sgk2 (Homo sapiens) (UniProt Q9HBY8); conditions: Compound concentration 1000.0 nM
[37] = target: Serine/threonine-protein kinase 33 (Homo sapiens) (UniProt Q9BYT3); conditions: Compound concentration 1000.0 nM
[38] = target: Tyrosine-protein kinase SYK (Homo sapiens) (UniProt P43405); conditions: Compound concentration 1000.0 nM
[39] = target: Serine/threonine-protein kinase ULK1 (Homo sapiens) (UniProt O75385); conditions: Compound concentration 1000.0 nM
[40] = target: Wee1-like protein kinase 2 (Homo sapiens) (UniProt P0C1S8); conditions: Compound concentration 1000.0 nM
[41] = target: Serine/threonine-protein kinase WNK2 (Homo sapiens) (UniProt Q9Y3S1); conditions: Compound concentration 1000.0 nM
[42] = target: Serine/threonine-protein kinase 32C (Homo sapiens) (UniProt Q86UX6); conditions: Compound concentration 1000.0 nM
[43] = target: Mu-type opioid receptor (Homo sapiens) (UniProt P35372); conditions: Compound concentration 10.0 uM
[44] = target: Alpha-2A adrenergic receptor (Homo sapiens) (UniProt P08913); conditions: Compound concentration 10.0 uM

Chain of Histamine H3 receptor (Q9Y5N1 whole entry): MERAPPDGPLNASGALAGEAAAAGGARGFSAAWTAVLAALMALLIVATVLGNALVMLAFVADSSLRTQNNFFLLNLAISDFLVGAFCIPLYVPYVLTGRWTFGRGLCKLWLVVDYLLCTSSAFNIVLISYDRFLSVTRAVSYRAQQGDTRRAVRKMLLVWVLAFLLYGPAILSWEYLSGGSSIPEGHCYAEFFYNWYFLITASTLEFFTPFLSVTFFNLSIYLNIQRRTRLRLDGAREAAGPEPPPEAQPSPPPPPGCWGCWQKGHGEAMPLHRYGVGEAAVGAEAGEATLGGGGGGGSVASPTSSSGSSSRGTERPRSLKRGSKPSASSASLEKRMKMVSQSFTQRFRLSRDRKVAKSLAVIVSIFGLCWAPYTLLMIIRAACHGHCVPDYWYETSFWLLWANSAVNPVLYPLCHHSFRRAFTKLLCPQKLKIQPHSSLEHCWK
Chain of Serine/threonine-protein kinase 26 (Homo sapiens) (Q9P289 2-416 limits assumed): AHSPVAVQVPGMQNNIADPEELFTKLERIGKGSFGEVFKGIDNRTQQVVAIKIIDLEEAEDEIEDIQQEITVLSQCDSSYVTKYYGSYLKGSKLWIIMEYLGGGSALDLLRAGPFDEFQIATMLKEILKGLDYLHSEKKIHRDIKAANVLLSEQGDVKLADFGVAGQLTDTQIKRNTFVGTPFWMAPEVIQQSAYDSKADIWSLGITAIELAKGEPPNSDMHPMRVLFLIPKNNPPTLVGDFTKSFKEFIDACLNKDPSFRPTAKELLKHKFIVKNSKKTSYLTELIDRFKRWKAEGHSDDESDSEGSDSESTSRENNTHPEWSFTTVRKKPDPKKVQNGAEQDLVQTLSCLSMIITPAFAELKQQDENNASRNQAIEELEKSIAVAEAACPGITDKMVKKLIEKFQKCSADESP
Chain of Receptor-interacting serine/threonine-protein kinase 4 (Homo sapiens) (P57078 whole entry): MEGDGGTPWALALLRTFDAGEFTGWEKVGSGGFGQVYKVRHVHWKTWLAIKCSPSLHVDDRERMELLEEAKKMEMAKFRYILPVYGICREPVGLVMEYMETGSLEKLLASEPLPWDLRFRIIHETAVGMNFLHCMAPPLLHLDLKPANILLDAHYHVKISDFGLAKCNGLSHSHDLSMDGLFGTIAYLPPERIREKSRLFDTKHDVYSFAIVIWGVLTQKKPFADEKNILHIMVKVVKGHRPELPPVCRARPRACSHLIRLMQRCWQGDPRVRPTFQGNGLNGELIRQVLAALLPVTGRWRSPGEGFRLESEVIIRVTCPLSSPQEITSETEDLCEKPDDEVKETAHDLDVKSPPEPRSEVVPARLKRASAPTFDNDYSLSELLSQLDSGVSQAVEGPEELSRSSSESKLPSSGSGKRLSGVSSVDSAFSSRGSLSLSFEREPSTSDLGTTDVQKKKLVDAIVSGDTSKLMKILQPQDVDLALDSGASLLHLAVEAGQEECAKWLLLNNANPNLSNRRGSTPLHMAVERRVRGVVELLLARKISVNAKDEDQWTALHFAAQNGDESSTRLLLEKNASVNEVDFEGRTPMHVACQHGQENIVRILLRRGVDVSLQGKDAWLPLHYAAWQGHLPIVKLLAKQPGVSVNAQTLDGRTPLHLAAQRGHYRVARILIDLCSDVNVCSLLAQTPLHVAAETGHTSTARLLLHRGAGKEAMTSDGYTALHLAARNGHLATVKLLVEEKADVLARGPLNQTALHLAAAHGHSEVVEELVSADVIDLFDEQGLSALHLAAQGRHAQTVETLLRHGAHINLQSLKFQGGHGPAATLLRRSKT
Chain of Serine/threonine-protein kinase Sgk2 (Homo sapiens) (Q9HBY8 whole entry): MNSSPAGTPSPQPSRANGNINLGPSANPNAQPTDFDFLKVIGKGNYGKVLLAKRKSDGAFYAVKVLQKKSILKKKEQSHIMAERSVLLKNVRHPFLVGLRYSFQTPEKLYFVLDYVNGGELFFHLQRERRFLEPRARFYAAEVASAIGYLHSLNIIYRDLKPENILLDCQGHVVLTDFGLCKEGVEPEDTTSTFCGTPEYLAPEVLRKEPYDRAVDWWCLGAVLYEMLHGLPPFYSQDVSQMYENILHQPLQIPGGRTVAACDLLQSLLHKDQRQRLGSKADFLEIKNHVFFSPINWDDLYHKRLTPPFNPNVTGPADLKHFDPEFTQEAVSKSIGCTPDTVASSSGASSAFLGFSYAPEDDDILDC
Chain of Proto-oncogene tyrosine-protein kinase receptor Ret (Homo sapiens), P07949 [V804M] (P07949 whole entry V804M): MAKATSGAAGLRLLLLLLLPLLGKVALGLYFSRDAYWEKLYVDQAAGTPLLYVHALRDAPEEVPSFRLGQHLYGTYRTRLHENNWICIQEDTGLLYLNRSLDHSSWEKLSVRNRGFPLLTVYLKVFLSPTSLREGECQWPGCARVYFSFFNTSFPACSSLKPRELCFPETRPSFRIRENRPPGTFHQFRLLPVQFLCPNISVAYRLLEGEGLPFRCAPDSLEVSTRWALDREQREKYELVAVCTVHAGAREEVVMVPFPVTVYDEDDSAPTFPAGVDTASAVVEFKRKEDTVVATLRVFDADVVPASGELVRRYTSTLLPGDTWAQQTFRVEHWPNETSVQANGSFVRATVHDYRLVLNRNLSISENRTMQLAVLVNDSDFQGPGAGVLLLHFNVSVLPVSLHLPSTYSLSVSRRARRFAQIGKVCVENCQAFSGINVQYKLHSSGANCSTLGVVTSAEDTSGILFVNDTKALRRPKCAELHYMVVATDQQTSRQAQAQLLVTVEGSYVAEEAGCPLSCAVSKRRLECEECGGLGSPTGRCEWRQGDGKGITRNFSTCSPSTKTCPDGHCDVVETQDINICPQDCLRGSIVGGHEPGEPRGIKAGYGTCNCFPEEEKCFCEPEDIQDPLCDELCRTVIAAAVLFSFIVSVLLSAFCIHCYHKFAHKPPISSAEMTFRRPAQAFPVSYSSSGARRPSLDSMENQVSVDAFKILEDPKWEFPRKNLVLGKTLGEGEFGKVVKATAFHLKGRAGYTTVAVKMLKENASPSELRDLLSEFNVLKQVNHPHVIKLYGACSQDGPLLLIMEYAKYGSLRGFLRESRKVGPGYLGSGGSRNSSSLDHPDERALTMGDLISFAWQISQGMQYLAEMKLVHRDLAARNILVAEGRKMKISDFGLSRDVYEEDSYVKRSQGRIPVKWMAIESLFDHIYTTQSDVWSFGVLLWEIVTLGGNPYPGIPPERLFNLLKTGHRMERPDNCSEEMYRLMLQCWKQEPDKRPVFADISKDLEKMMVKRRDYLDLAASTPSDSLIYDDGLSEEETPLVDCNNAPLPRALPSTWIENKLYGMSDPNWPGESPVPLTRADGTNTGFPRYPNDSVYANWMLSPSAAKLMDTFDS
Chain of Serine/threonine-protein kinase Nek5 (Homo sapiens) (Q6P3R8 whole entry): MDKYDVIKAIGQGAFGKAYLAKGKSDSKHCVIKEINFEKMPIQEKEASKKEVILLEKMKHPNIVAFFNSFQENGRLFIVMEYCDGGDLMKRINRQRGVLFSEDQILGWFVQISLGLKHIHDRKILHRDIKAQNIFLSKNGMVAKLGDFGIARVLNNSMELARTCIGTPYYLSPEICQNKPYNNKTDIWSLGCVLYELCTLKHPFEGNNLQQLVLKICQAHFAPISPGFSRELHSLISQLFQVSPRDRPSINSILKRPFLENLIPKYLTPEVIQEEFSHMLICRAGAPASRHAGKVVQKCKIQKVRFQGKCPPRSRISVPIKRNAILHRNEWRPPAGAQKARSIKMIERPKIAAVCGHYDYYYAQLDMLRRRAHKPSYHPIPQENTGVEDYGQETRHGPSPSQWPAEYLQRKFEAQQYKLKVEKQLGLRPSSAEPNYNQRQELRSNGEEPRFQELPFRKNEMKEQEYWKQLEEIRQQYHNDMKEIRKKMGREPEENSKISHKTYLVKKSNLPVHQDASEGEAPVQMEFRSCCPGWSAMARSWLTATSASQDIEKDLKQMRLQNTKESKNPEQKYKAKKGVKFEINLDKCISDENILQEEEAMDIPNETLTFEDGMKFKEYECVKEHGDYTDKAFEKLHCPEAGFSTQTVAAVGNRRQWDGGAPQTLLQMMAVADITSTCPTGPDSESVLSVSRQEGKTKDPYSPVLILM
Chain of Serine/threonine-protein kinase PAK 3 (Homo sapiens) (O75914 whole entry, looked up, canonical isoform): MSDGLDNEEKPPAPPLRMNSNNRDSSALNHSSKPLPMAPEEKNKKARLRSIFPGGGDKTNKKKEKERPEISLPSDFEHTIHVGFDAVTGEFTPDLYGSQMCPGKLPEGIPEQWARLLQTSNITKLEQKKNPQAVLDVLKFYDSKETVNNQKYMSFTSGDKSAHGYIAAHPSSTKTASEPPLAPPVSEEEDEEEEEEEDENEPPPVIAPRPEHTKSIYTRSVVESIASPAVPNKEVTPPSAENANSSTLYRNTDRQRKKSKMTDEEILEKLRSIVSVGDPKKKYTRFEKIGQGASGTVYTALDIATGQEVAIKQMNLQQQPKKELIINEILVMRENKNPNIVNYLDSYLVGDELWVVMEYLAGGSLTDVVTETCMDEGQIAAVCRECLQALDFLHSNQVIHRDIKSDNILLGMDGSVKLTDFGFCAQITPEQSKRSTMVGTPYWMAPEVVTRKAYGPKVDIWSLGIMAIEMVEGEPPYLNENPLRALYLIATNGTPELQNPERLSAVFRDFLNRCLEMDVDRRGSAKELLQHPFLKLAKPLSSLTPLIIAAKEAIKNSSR
Chain of Serine/threonine-protein kinase pim-1 (Homo sapiens) (P11309 whole entry, looked up): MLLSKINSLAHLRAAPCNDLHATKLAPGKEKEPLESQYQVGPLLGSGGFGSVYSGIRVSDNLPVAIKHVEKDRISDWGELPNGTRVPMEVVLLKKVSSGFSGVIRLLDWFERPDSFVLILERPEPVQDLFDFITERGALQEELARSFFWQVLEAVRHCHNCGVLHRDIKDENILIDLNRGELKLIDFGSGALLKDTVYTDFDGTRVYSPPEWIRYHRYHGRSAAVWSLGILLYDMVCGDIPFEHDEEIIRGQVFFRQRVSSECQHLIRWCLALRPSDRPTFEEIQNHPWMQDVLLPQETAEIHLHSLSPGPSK

Structure (SMILES): CC(=O)C1=C(C)N(c2cccc(C(F)(F)F)c2)C(=O)N[C@@H]1c1ccc(C#N)nc1 [BAY-678]
- Ki (Histamine H3 receptor; read-out: Ki): 3070 nM
- Ki (Histamine H3 receptor; read-out: pKi (converted)): 2820 nM
- residual activity [1]: 94.3%
- residual activity [2]: 83.3%
- residual activity [3]: 100%
- residual activity [4]: 94.1%
- residual activity [5]: 91.2%
- residual activity [6]: 100%
- residual activity [7]: 79.4%
- residual activity [8]: 100%
- residual activity [9]: 80.9%
- residual activity [10]: 100%
- residual activity [11]: 73.2%
- residual activity [12]: 88.3%
- residual activity [13]: 85.1%
- residual activity [14]: 100%
- residual activity [15]: 100%
- residual activity [16]: 100%
- residual activity [17]: 80.8%
- residual activity [18]: 100%
- residual activity [19]: 100%
- residual activity [20]: 94%
- residual activity [21]: 97.5%
- residual activity [22]: 100%
- residual activity [23]: 94.1%
- residual activity [24]: 80.6%
- residual activity [25]: 86.3%
- residual activity [26]: 100%
- residual activity [27]: 80.8%
- residual activity [28]: 100%
- residual activity [29]: 100%
- residual activity [30]: 100%
- residual activity [31]: 100%
- residual activity [32]: 100%
- residual activity [33]: 100%
- residual activity [34]: 100%
- residual activity [35]: 76.9%
- residual activity [36]: 100%
- residual activity [37]: 91.6%
- residual activity [38]: 100%
- residual activity [39]: 100%
- residual activity [40]: 100%
- residual activity [41]: 94%
- residual activity [42]: 94.1%
- inhibition [43]: -5.41%
- inhibition [44]: 10.5%
